# Assay results published in patent US4022903A, “α-Thienyl and α-substituted thienyl, phenyl and substituted phenyl cyclopropylomethanols useful as biodegradable insecticides and mollusicides” (Abbott Laboratories, priority 1975, dated 1977).
# Columns and labels:
# Adult snails = assay: Molluscicide activity, adult snails; type: in vivo; settings: 0/10-2/10 inactive, 3/10-7/10 partially active, 8/10-10/10 active
# [1] = system: newly hatched snails of the strain B. glabrata; assay: Molluscicide activity, newly hatched snails; type: in vivo; settings: 24 hours, 26° C, 0/10-2/10 inactive, 3/10-7/10 partially active, 8/10-10/10 active
# mites = assay: Leaf Disc Mite Assay; type: in vivo; settings: 48 hours, adult mites
# Protocol: A stock solution of 50,000 ppm is prepared. The solution consists of 25 percent DMF, 75 percent IPA and approximately 4 percent Tween 20. The stock solution is diluted (1:20) to a concentration of 2500 ppm using as a diluent 70 percent acetone containing 0.1 percent Tween 20. The 2500 ppm solution is used for the initial screen.
# Leaf discs 15 mm in diameter are cut from fresh Henderson Bush Lima Bean plants. Discs are then dropped in the appropriate dilution of the chemical being tested.
# The leaf discs are allowed to dry and then placed on moistened filter paper in appropriately labeled petri dishes. Ten adult mites are placed on each disc. Nine discs are used for each compound. Percent mortality is determined after 48 hours.
# When a compound is rated very active, 1:10 dilutions are made of the 2500 stock.
# Mice oral LD 50 = settings: mouse, in vivo, orally
Compound,"Molluscicide, mortality, Adult (Adult snails; 1 ppm)","Molluscicide, mortality, Adult (Adult snails; 10 ppm)","Molluscicide, mortality, New ([1]; 1 ppm)","Molluscicide, mortality, New ([1]; 10 ppm)","Mites, percent mortality (activity rating) (mites; 2500 ppm)",LD50 (Mice oral LD 50),"Mites, percent mortality (activity rating) (mites; 500 ppm)"
OC(c1ccc(Br)cc1)(c1ccc(Cl)s1)C1CC1 (stereo not drawn) [compound 8],3/10,9/10,10/10,10/10,VA (80-100 percent mortality are rated very active (VA)),–,–
Cc1ccc(C(O)(c2ccc(Cl)s2)C2CC2)cc1 (stereo not drawn) [compound 7],0/10,9/10,4/10,10/10,–,> 1000 mg/kg,–
OC(c1ccc(Cl)cc1)(c1cccs1)C1CC1 (stereo not drawn) [compound 1],0/10,6/10,6/10,10/10,SIA (25-50 percent is slightly active (SIA)),–,–
OC(c1ccc(Cl)cc1)(c1ccc(Cl)s1)C1CC1 (stereo not drawn) [compound 4],0/10,9/10,7/10,10/10,VA (80-100 percent mortality are rated very active (VA)),–,A (50-80 percent mortality is rated active (A))
OC(c1ccc(C(F)(F)F)cc1)(c1ccc(Cl)s1)C1CC1 (stereo not drawn) [compound 5],1/10,0/10,8/10,10/10,VA (80-100 percent mortality are rated very active (VA)),> 1000 mg/kg,A (50-80 percent mortality is rated active (A))
α-(5-Chloro-2-Thienyl)4-Chlorophenylcyclopropylmethanol [No. 4],0/10,0/10,0/10,0/10,–,–,–
OC(c1ccc(C(F)(F)F)cc1)(c1cccs1)C1CC1 (stereo not drawn) [compound 2],0/10,6/10,4/10,10/10,SIA (25-50 percent is slightly active (SIA)),–,–
OC(c1ccc(F)cc1)(c1ccc(Cl)s1)C1CC1 (stereo not drawn) [compound 9],0/10,9/10,5/10,10/10,–,> 300 mg/kg,–
